Data as given in patent publication US20230365519A1, “CARBOXYLIC DIARYLTHIAZEPINEAMINES AND USES THEREOF” (Kures, Inc., priority 2020, published 2023).

Experiment: Brain pharmacokinetics of tianeptine and its 5-carbon metabolite (7i) in mice
Procedure: Experimental Protocol for PK Studies. […] Brain samples were collected from three mice at 0.08, 0.25, 0.5, 1, 2, 4, 8 and 24 h, homogenized using ice-cold phosphate buffer saline (pH 7.4), and stored below -70° C. until analysis. Total homogenate volume was three times the tissue weight. All samples were processed for analysis by protein precipitation using acetonitrile (ACN) and analyzed with a fit-for-purpose LC/MS/MS method (LLOQ - 1.01 ng/mL in brain). Pharmacokinetic parameters were calculated using the non-compartmental analysis tool of Phoenix WinNonlin® (Version 6.3).

[1] = C57BL/6 mice, single injection of tianeptine 30 mg/kg i.p.
[2] = mice, after tianeptine 30 mg/kg i.p., in words

SMILES: CN1c2ccccc2C(NCCCCC(=O)O)c2ccc(Cl)cc2S1(=O)=O.Cl (stereo not drawn) [Compound 7i]
- AUClast [1]: 5963 ng·h/g
- CL [1]: 78 mL/min/kg
- Tmax [1]: 0.5 h
- T½ [1]: 2.33 h
- brain exposure (as measured by AUC) compared to the parent compound (tianeptine) [2]: greater brain exposure
- half-life compared to the parent compound (tianeptine) [2]: significantly longer half-life
